Reference: patent US20070293581A1, “Methods for Buccal, Lingual or Sublingual Dosing Regimens of Epinephrine for the Treatment of Allergic Emergencies” (priority 2006, published 2007)
Where two headings read alike, the source gives them in different places.

System: patient experiencing an allergic emergency (symptoms of anaphylaxis)
Procedure: A patient experiencing an allergic emergency initiates treatment at the onset of shortness of breath by self administering 40 mg of epinephrine free base in a buccal dosage form.
A patient experiencing an allergic emergency initiates treatment at the onset of shortness of breath by self administering 40 mg of epinephrine free base in a buccal dosage form. […] After another approximately 5 minutes pass without amelioration of the symptoms of anaphylaxis, the patient self administers a third buccal dosage form comprising 20 mg of epinephrine free base.
A patient experiencing an allergic emergency initiates treatment at the onset of shortness of breath by self administering 40 mg of epinephrine free base in a lingual dosage form. After approximately 5 minutes pass without amelioration of the symptoms of anaphylaxis, the patient self administers a second lingual dosage form comprising 40 mg of epinephrine free base. After another approximately 5 minutes pass without amelioration of the symptoms of anaphylaxis, the patient self administers a third lingual dosage form comprising 20 mg of epinephrine free base.

Measured: patient's symptoms of anaphylaxis

CNC[C@H](O)c1ccc(O)c(O)c1 [epinephrine free base, epinephrine]
relieved: Example 1: buccal dosage form, 40 mg then second 40 mg after approx. 5 minutes, outcome within about five minutes after the second dose | Example 2: buccal dosage form, 40 mg, then 20 mg at approx. 5 minute intervals, outcome within about five minutes after the third dose | Example 3: lingual dosage form, 40 mg, then 20 mg at approx. 5 minute intervals, outcome within about five minutes after the third dose
